Legend:
[1] = Nephrotoxicity in an in vivo mouse model; conditions: result in words
[2] = tested on: Parental CHO cells (Drug Sensitive); test: Doxorubicin growth inhibition, methylene blue staining method, parental drug-sensitive cells; type: cell-based, Chinese hamster; conditions: Cricetulus griseus, doxorubicin only, about 72 hours continuous exposure
Experimental: Equal numbers of cells of an anchorage dependent mammalian cell line are seeded in growth medium (e.g. alpha MEM plus 10% FBS) into a suitable culture vessel, e.g. plastic 96 well tissue culture plates. A cytotoxic drug (e.g. doxorubicin) is added to the cells in the dishes at various concentrations ranging between 0 and 100 uM. Following about 72 hours of continuous exposure to the cytotoxic agent, the growth medium is decanted and the cells are washed with a suitable buffer, e.g. phosphate buffered saline (PBS). About 2 ml of a solution of 2% methylene blue (dissolve methylene blue in a solution of about 50% ethanol in water) is added to the cells on the dishes. The dye is allowed to contact the cells for about 2 minutes. Excess dye is washed away with cold water and the plates are air dried. The dye stained cells are then solubilized by adding an equal volume to all wells of a solution of a detergent, e.g. 1% N-lauroyl-sarcosine. The amount of dye remaining in the wells directly correlates witht he number of cells in the well. The amount of methylene blue dye in the wells can be measured spectrophotometrically by measuring absorbance at 600 nm using an electronic ELISA plate spectrophotmeter (Minireader II, Dynatech Laboratories, Alexandria, VA). […]

[3] = tested on: MDR CHO cells (multidrug-resistant); test: Doxorubicin growth inhibition, methylene blue staining method, multidrug-resistant cells; type: cell-based, Chinese hamster; conditions: Cricetulus griseus, doxorubicin only, about 72 hours continuous exposure
Text: Multidrug-resistant cells lines are easily obtainable for in vitro determination of drug sensitization by compounds of the present invention, as well as other compounds with similar activity. These cell lines include NIH-OVCAR-3 (ATCC HTB161)., which is commercially available. Other cell lines can be readily developed in accordance with the methods described by Twentyman et al., Br. J. Cancer, 54, 253 (1986). This procedure selects for multidrug-resistant cells by culturing the parental drug sensitive cell line in the continued presence of a cytotoxic drug, for example, doxorubicin.
Drug sensitive cells will perish while multidrug-resistant cells will survive and grow despite the presence of the drug. Eventually, a multidrug-resistant cell population emerges and can be used in an assay system for the detection of agents which can modify the multidrug-resistance. Many cell lines are suitable as parental cell lines from which multidrug-resistant cells can be selected. […]
Equal numbers of cells of an anchorage dependent mammalian cell line are seeded in growth medium (e.g. alpha MEM plus 10% FBS) into a suitable culture vessel, e.g. plastic 96 well tissue culture plates. […] The amount of methylene blue dye in the wells can be measured spectrophotometrically by measuring absorbance at 600 nm using an electronic ELISA plate spectrophotmeter (Minireader II, Dynatech Laboratories, Alexandria, VA). […]

SMILES: C/C=C/C[C@@H](C)[C@@H](O)[C@H]1C(=O)N[C@@H](CC)C(=O)N(C)CC(=O)N(C)[C@@H](CC(C)C)C(=O)N[C@@H](C(C)C)C(=O)N(C)[C@@H](CC)C(=O)N[C@@H](C)C(=O)N[C@H](C)C(=O)N(C)[C@@H](CC(C)C)C(=O)N(C)[C@@H](CC(C)C)C(=O)N(C)[C@@H](C(C)C)C(=O)N1C [6-MeAbu]
- Nephrotoxicity [1]: lack the nephrotoxic side effects

SMILES: C/C=C/C[C@@H](C)[C@@H](O)[C@H]1C(=O)N[C@@H](CC)C(=O)N(C)CC(=O)N(C)[C@@H](CC(C)C)C(=O)N[C@@H](C(C)C)C(=O)N(C)[C@@H](C)C(=O)N[C@@H](C)C(=O)N[C@H](C)C(=O)N(C)[C@@H](CC(C)C)C(=O)N(C)[C@@H](CC(C)C)C(=O)N(C)[C@@H](C(C)C)C(=O)N1C [6-MeAla, Cyclo[-((2S,3R,4R,6E)-3-Hydroxy-4-methyl-2-methylamino-6-octenoyl)-L-2-aminobutyryl-sarcosyl-N-methyl-L-leucyl-Valyl-N-methyl-L-alanyl-L-alanyl-D-alanyl-N-methyl-L-leucyl-N-methyl-L-leucyl-N-methyl-L-valyl]]
- Nephrotoxicity [1]: lack the nephrotoxic side effects

SMILES: COc1cccc2c1C(=O)c1c(O)c3c(c(O)c1C2=O)C[C@@](O)(C(=O)CO)C[C@@H]3O[C@H]1C[C@H](N)[C@H](O)[C@H](C)O1 [Doxorubicin, doxorubicin]
- IC50 [2]: 0.17 ± 0.01 µM
- IC50 [3]: 11.3 ± 0.51 µM

Source: patent US5236899A (Merck & Co., Inc., priority 1991, dated 1993)
